Data from patent US7482329B2, “Single domain TDF-related compounds and analogs thereof” (Thrasos Therapeutics, priority 2002, dated 2009).
Entries after “also recorded” stand apart in the source; their conditions may differ. Each block holds one molecule with its values, some of them ahead of it. Where a SMILES comes first, the peptide text is derived from it.

Experiments:
[1] = target: T1, BMPR-2 receptor extra cellular domain (Homo sapiens, UniProt Q13873); assay: Radio-ligand receptor binding assay, competition with 125I-labeled TDF-1 for BMPR-2
T1 construct: immobilized BMPR-2 receptor extra cellular domain (ECD)
T1 sequence (Q13873 27-150 limits assumed): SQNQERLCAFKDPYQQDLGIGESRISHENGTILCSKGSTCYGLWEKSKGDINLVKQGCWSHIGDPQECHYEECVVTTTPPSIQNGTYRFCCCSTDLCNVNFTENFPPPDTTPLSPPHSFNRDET
Description: General protocol: These assays are based on competition between ^125I-labeled TDF-1 (BMP-7 or OP-1) and candidate TDFRP compounds or unlabeled TDF-1 for binding to respective receptors (ALK-3, ALK-6 or BMPR-2). In brief, the procedure involves immobilization of receptor on 96 well Removawell plates, blocking the wells with 3% BSA in PBS and subsequently washing the wells. Increasing concentrations of unlabeled TDF-1 or TDFRP compounds or control (unlabeled TDF-1) prepared in binding buffer are then added. Incubate plate for 1 hour at room temperature, and then add a fixed amount of ^125I-labeled TDF-1 (250,000 to 350,000 cpm) to the wells and further incubate in cold (4° C.) for 20 hours. Aspirate the contents of the wells and wash the wells four times with a wash buffer, and count the receptor bound ^125I-labeled TDF-1 in an auto gamma counter. B. HK-2 Cell Culture and Determination of Cytokine Production

Smad1 in HK2 cells = assay: Smad1 accumulation in the nucleus of HK2 cells (Ser-Thr signal transduction); assay type: cell-based, human; conditions: fluorescent labeling of Smad-1, FIG. 8, FIG. 9
Description: Open column is non-inflammation background level of ICAM-1; Black column is the ICAM-1 level following TNF-alpha inflammatory stimulation. […] In the Ser-Thr signaling pathway, the ligand (TDF-1 or TP2.003) bind to both the type 1 receptor (ALK3) and the type 2 receptor (BMPR2) inducing oligomerization of the receptors. The type 2 receptor under goes phosphorylation and then phosphorylates the type 1 receptor, which then phosphorylates one of Smad 1, 5 or 8 (ref. to as Smad1 below). The phosphorylated Smad1 is then picked up by Smad4 and ferried into the nucleus. Thus, detection of the concentration of Smad1 in the nucleus is diagnostic of induction of signal transduction.
Note that in the right hand column, the phase contrast images of the HK2 cells showing close to confluency; the images on the left show fluorescent labeling of Smad-1 in the nucleus of HK2 cells.

[2] = test system: IL-6 in HK2 human transformed kidney proximal tubule cells; assay: IL-6 level in HK-2 cell medium after TNF-alpha stimulation (ELISA); assay type: cell-based; conditions: for effect on level of IL-6 in HK2 cell medium: after TNF-alpha inflammatory stimulation, FIG. 6, FIG. 10
Procedure: The immortalized PTEC-derived HK-2 (Human Kidney-2) cells (ATCC number CRL-2190) were grown in serum-free keratinocyte medium (GIBCO number 17005-042) supplemented with epidermal growth factor (EGF: 5 ng/mL) and bovine pituitary extract (40 ug/mL) for 48 hours as described previously (Ryan et al (1994) Kidney International 45:48-57). Cells were transferred to 24-well plates at a density of 3×10^5 cells per well. After 24 hours, cells were incubated with fresh medium containing TNF-alpha (5 ng/mL) for 20 hours. Controls received medium alone. Then cells were washed twice with fresh culture medium and further incubated with culture medium alone (medium control, and TNF control wells) or TDF-1 at three different concentrations (40, 200 or 1000 ng/mL) or TDFRP compounds at three different concentrations (4, 20 or 100 uM) for sixty hours. During incubation, cells were kept in a 5% CO2 humid atmosphere at 37° C. At the end of the incubation, the media were removed and stored frozen until assayed. The concentrations of IL-6 and sICAM-in culture supernatants were measured by specific ELISA.
Dilute the capture antibody to the working concentration in PBS, pH 7.4 without carrier protein. Add 61 uL of stock antibody (360 ug/mL) to 10.939 mL of PBS, gently vertex. Immediately coat a 96 well microplate (Immulon 4 HBX) with 100 uL per well of the diluted capture antibody. Seal the plate and incubate it overnight in cold (4° C.). (PBS: 8.1 mM Na2HPO4, 1.5 mM KH2PO4, 137 mM NaCl, 2.7 mM KCl, pH 7.4, 0.2 um filtered). Next day empty the wells and wash the wells three times, each time using 340 uL of wash buffer per well. (wash buffer: PBS, pH 7.4 containing 0.05% Tween-20).
Prepare blocking buffer, 35 mL per plate. To prepare blocking buffer, add 0.35 grams of BSA and 1.75 grams of sucrose to 35 mL of PBS, pH 7.4, and mix the contents gently. Add 300 uL of blocking buffer to each well and incubate the plate for a minimum of 1 hour at room temperature. Empty the wells and wash wells three times, each time using 340 uL of wash buffer per well.
Prepare a 8 point standard curve using 2-fold serial dilutions in reagent diluent. Dilute stock standard, recombinant IL-6, 70 ng/mL to an initial concentration of 2400 ng/mL in reagent diluent. Then further dilute the standard to a working range, 1200, 600, 300, 150, 75, 37.5, 18.75 and 9.375 ng/mL using reagent diluent. (to prepare reagent diluent, add 0.4 grams of BSA to 40 mL of PBS, pH 7.4 and gently vertex). Also dilute 24 uL of each sample medium (from HK-2 cell cultures) with 376 uL of reagent diluent. Add 100 uL of standard or sample per well, seal the plate and incubate it overnight in cold (4° C.).
Next day, empty the wells and wash wells three times, each time using 340 uL of wash buffer per well. […]

specific binding to BMPR-2 / inhibition of specific binding of labeled TDF-1 to BMPR-2 receptor ([1]; competitive binding, FIG. 4): specifically binds and does | EC50 ([2]; HK2 cells, 5 ng/ml TNF-alpha stimulus, FIG. 6, read-out: ED50, lowering of IL-6 level): ~10 µM
Molecule: CC(C)C[C@H](NC(=O)[C@@H](NC(=O)[C@H](CC(N)=O)NC(=O)[C@H](CO)NC(=O)[C@H](CO)NC(=O)[C@H](CC(=O)O)NC(=O)[C@H](CC(=O)O)NC(=O)[C@H](Cc1ccccc1)NC(=O)[C@H](Cc1ccc(O)cc1)NC(=O)[C@@H](N)CS)C(C)C)C(=O)N[C@@H](CS)C(=O)N[C@@H](CCCCN)C(=O)N[C@@H](CCCCN)C(=O)N[C@@H](Cc1ccc(O)cc1)C(=O)N[C@@H](CCCNC(=N)N)C(=O)N[C@@H](CO)C(=O)O [SEQ ID NO:45, CYFDDSSNVLCKKYRS] (H-CYFDDSSNVLCKKYRS-OH)
Smad1 accumulation in the nucleus / induction of Ser-Thr signal transduction (Smad1 in HK2 cells): induces Ser-Thr signal transduction; also recorded: dose dependent response of Smad1 accumulation in the nucleus | effect on level of IL-6 in HK2 cell medium [2]: reduces the level of cellular inflammation marker IL-6; also recorded: lowers the level of IL-6 in a dose dependent manner

EC50 ([1]; FIG. 3, read-out: ED50, displacing labeled TDF-1 from immobilized BMPR-2 receptor ECD): 0.0063 µM
B1: TDF-1: TDF-1 (BMP-7 or OP-1), bone morphogenetic protein-7; unlabeled control ligand in the binding and cell assays (protein)
chain: STGSKQRSQNRSKTPKNQEALRMANVAENSSSDQRQACKKHELYVSFRDLGWQDWIIAPEGYAAYYCEGECAFPLNSYMNATNHAIVQTLVHFINPETVPKPCCAPTQLNAISVLYFDDSSNVILKKYRNMVVRACGCH
Smad1 accumulation in the nucleus / induction of Ser-Thr signal transduction (Smad1 in HK2 cells): induces Ser-Thr signal transduction; also recorded: dose dependent response of Smad1 accumulation in the nucleus | effect on level of IL-6 in HK2 cell medium [2]: lowers the level of IL-6 in a dose dependent manner; also recorded: brings the IL-6 level down below the basal level
